The series is described as follows: water solubility by ultraviolet (UV) spectrophotometry. It is filed as physicochemical. The note with it: at 25 °C, free pesticide, read-out: intrinsic solubility. An excerpt: Figure 1: Diagram of a solubility study using ultraviolet (UV) spectrophotometry of Bendiocarb as the concentration of cyclodextrin increases. Figure 2: Graph of differential scanning thermogravimetry (DST) of Bifenthrin alone, cyclodextrin (CD) alone, physical mixture of the two, and inclusion complex formed (encapsulated). Figure 3: Curves of differential thermal analysis (DTA) and thermal gravimetric analysis (TGA) of Tetramethrin alone, cyclodextrin (CD) alone, physical mixture of the two, and different inclusion complexes formed according to methods 1 or 2 and with the indicated stechiometries 1:1 or 2:1. Figure 4: Spectra of Nuclear Magnetic Resonance (1 H NMR) of Acetamiprid alone (a), cyclodextrin (CD) alone (b) and formed inclusion complex (c). Figure 5: Scanning electron photographs (SEM) of the structural change of Tebuconazole once the inclusion complex with cyclodextrin is formed. Figure 6: X-ray diffractograms (XRD) of Imidacloprid alone, cyclodextrin (CD) alone, physical mixture of both and inclusion complex formed (encapsulation). Figure 7: Diagram of the three-dimensional structures of the Acetamiprid-cyclodextrin complex by formation of a single crystal. Figure 8: Structural modelling by means of the program MACROMODEL of the Acetamiprid-cyclodextrin dimer. Figure 9: Performance of the Bendiocarb microencapsulation reaction (DSC). […]

The structures appear in SMILES notation. In brackets after ≈: the same amount, converted by molar mass.

Consider `CNC(=O)Oc1cccc2c1OC(C)(C)O2` [Bendiocarb], for which the solubility worked out at 600 µM (≈ 134 µg/mL).

(Values after patent EP2848122A1, “NEW PESTICIDE INCLUSION COMPLEXES, CO[…] COMPLEXES AND THE USE THEREOF AS PESTICIDES” (priority 2012, dated 2013).)
